Source: patent publication US5223513A, “Quinoline derivatives, their production and use” (Takeda Chemical Industries, Ltd., priority 1989, dated 1993)

Experiments:
[1] = biological target: T1, acyl-CoA : cholesterol acyltransferase (ACAT) (Rattus norvegicus, UniProt Q7TQM4); assay: Acyl-CoA : Cholesterol Acyltransferase (ACAT) inhibitory activity; type: biochemical; conditions: for inhibition at 1 µM: 10^-6 M of test compound, production of labeled cholesterol ester, read-out: ACAT Inhibition Rate (%); for IC50: calculated by plotting inhibition rates obtained at plural concentrations, read-out: 50% inhibitory concentration (IC50)
T1 construct: mucosal microsome fraction of the small intestine; from tissue; host or cells: mucosal microsome fraction of rat small intestine
T1 sequence (Q7TQM4 1-524): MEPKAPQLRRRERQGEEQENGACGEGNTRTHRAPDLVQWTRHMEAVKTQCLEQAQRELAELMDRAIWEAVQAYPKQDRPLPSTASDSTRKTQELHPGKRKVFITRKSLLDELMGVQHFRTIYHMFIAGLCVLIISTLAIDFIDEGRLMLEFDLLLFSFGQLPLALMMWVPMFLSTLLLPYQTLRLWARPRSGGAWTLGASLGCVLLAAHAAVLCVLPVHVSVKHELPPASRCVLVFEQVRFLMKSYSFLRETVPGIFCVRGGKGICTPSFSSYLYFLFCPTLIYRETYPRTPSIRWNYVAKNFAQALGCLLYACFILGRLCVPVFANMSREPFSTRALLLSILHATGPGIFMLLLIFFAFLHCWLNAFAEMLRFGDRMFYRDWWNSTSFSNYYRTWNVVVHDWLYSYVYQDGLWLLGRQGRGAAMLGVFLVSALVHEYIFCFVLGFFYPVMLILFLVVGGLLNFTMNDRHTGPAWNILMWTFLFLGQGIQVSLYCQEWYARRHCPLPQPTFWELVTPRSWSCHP
Procedure: The enzyme ACAT was prepared by the method of Heider et al. described in Journal of Lipid Research, Vol. 24, page 1127 (1982), from the mucosal microsome fraction of the small intestine of male, 6-week old Sprague-Dawley rats which had been fasted for 20 hours.
ACAT activity was calculated by the method of Helgerud et al. described in Journal of Lipid Research, Vol. 22, page 271 (1981), namely, by measuring the amount of the labeled cholesterol ester produced from [1-^14 C] oleoyl-CoA and endogenous cholesterol. […]

[2] = Plasma Cholesterol Lowering Activity in Cholesterol Fed Rat; type: in vivo, rat (Sarague-Dawely); conditions: 1% cholesterol diet containing 0.0003% of test compound for 7 days; Example 3 dose 0.27 ± 0.02, Example 24 dose 0.24 ± 0.03 mg/kg/day; mean ± standard deviation; *p < 0.05 (t test vs control group 195 ± 32)
Procedure: To 7-week old, male Sarague-Dawely rats which were grouped according to body weight was fed 1% cholesterol diet containing 0.5% of cholic acid, 5% of olive oil and 0.0003% of a test compound for 7 days. Blood was collected from the rats during 8:30-10:00 am at the fed state, and the plasma cholesterol level was measured enzymatically. The amount of test compound consumed by rats was calculated on the basis of the amount of the diet consumed by the rats.

Structure (SMILES) | inhibition at 1 µM [1] [%] | IC50 [1] [nM] | Cholesterol in Serum [2] [mg/dL]
Cc1cc2c(-c3ccccc3C)c(NC(=O)Nc3ccc(F)cc3F)c(=O)n(C)c2cc1C [Example 10, N-(2,4-difluorophenyl)-N'-(1,2-dihydro-1,6,7-trimethyl-4-(2-methylphenyl)-2-oxo-3-quinolyl]urea] | 97.6 | 78 | 
Cn1c(=O)c(NC(=O)Nc2ccc(F)cc2F)c(-c2ccccc2Cl)c2cc(Cl)ccc21 [Example 1] | 96.8 |  | 
CCn1c(=O)c(NC(=O)Nc2ccc(F)cc2F)c(-c2ccccc2Cl)c2cc(C)cc(C)c21 [Example 6, N-[4-(2-chlorophenyl)-1-ethyl-1,2-dihydro-6,8-di-methyl-2-oxo-3-quinolyl]-N'-(2,4-difluorophenyl)urea] | 97.9 |  | 
Cc1cc2c(-c3ccccc3Cl)c(NC(=O)Nc3ccc(F)cc3F)c(=O)n(C)c2cc1C [Example 3, N-[4-(2-chlorophenyl)-1,6,7-trimethyl-1,2-dihydro-2-oxo-3-quinolyl]-N'-(2,4-difluorophenyl)urea] | 98.7 | 6.4 | 129 ± 19
Cc1cccc(C(C)C)c1NC(=O)Nc1c(-c2ccccc2Cl)c2cc(Cl)ccc2n(C)c1=O [Example 2] | 99.2 | 16 | 
COc1cc(NC(=O)Nc2c(-c3ccccc3Cl)c3cc(C)c(C)cc3n(C)c2=O)cc(OC)c1OC(C)=O [Example 15, N-(4-acetoxy-3,5-di-methoxyphenyl) -N'-[4-(2-chlorophenyl)-1,2-dihydro-1,6,7-trimethyl-2-oxo-3-quinolyl]urea] | 90.1 |  | 
Cc1cc(C)c2c(c1)c(-c1ccccc1Cl)c(NC(=O)Nc1c(C)cccc1C(C)C)c(=O)n2C [Example 5, N-[4-(2-chlorophenyl)-1,2-dihydro-1,6,8-trimethyl-2-oxo-3-quinolyl]-N'-(2-isopropyl-6-methylphenyl)urea] | 98.2 | 18 | 
COc1nc2ccc(Cl)cc2c(-c2ccccc2Cl)c1NC(=O)Nc1ccc(F)cc1F [Example 9] | 89.6 |  | 
COc1ccc(-c2c(NC(=O)Nc3ccc(F)cc3F)c(=O)n(C)c3ccc(C)cc23)cc1OC [Example 11, N-(2,4-difluorophenyl)-N'-[1,2-dihydro-4-(3,4-di-methoxyphenyl) -1,6-dimethyl-2-oxo-3-quinolyl]urea] | 96.6 |  | 
Cn1c(=O)c(NC(=O)Nc2ccc(F)cc2F)c(-c2ccccc2)c2cc(Cl)ccc21 [Example 7, N-(6-chloro-1,2-dihydro-1-methyl-2-oxo-4-phenyl-3-quinolyl)-N'-(2,4-difluorophenyl)urea] | 77.9 |  | 
Cc1cc(C)c2c(c1)c(-c1ccccc1Cl)c(NC(=O)Nc1ccc(F)cc1F)c(=O)n2C [Example 4, N-[4-(2-chlorophenyl)-1,2-dihydro-1,6,8-trimethyl-2-oxo-3-quinolyl]-N'-(2,4-difluorophenyl)urea] | 97.1 |  | 
COc1nc2c(C)cc(C)cc2c(-c2ccccc2Cl)c1NC(=O)Nc1ccc(F)cc1F [Example 12, N-[4-(2-chlorophenyl)-2-methoxy-6,8-dimethyl-3-quinolyl]-N -(2,4-difluorophenyl)urea] | 95.9 |  | 

Continued, in another order:

inhibition at 1 µM [1] [%] | IC50 [1] [nM] | Structure (SMILES) | Cholesterol in Serum [2] [mg/dL]
99.2 | 9.3 | Cc1cc2c(-c3ccccc3C)c(NC(=O)Nc3ccc(F)cc3F)c(=O)n(C)c2cc1Cl [Example 24, N-[7-chloro-1,2-dihydro-4-(2-methylphenyl)-1,6-dimethyl-2-oxo-3-quinolyl]-N'-(2,4-difluorophenyl)urea] | 113 ± 41
85.4 |  | Cc1cc(C)c2nc(C)c(NC(=O)Nc3ccc(F)cc3F)c(-c3ccccc3Cl)c2c1 [Example 13, N-[4-(2-chlorophenyl)-2,6,8-trimethyl-3-quinolyl]-N'-(2,4-difluorophenyl)urea] | 
96.1 | 35 | Cc1ccccc1-c1c(NC(=O)Nc2ccc(F)cc2F)c(=O)n(C)c2ccc(Cl)cc12 [Example 20, N-[6-chloro-1,2-dihydro-1-methyl-4-(2-methylphenyl)-2-oxo-3-quinolyl]-N'-(2,4-difluorophenyl)urea] | 
99 | 37 | COc1ccc(-c2c(NC(=O)Nc3c(C)cccc3C(C)C)c(=O)n(C)c3ccc(C)cc23)cc1OC [Example 22, N-[1,2-dihydro-4-(3,4-dimethoxyphenyl)-1,6-dimethyl-3-quinolyn]-N'-(2-isopropyl-6-methylphenyl)urea] | 
99 | 41 | COc1ccc(-c2c(NC(=O)Nc3c(C)cccc3C(C)C)c(=O)n(C)c3ccc(Cl)cc23)cc1OC [Example 23] | 
99.4 | 17 | Cc1ccccc1-c1c(NC(=O)Nc2c(C)cccc2C(C)C)c(=O)n(C)c2ccc(Cl)cc12 [Example 21, N-[6-chloro-1,2-dihydro-1-methyl-4-(2-methylphenyl)-2-oxo-3-quinolyl]-N'-(2-isopropyl-6-methylphenyl)urea] | 
96.5 | 25 | CCc1ccc2c(c1)c(-c1ccccc1Cl)c(NC(=O)Nc1ccc(F)cc1F)c(=O)n2C [Example 17, N-[4-(2-chlorophenyl)-1,2-dihydro-6-ethyl-1-methyl-2-oxo-3-quinolyl]-N'-(2,4-difluorophenyl)urea] | 
99.2 | 12 | CCc1ccc2c(c1)c(-c1ccccc1Cl)c(NC(=O)Nc1c(C)cccc1C(C)C)c(=O)n2C [Example 18, N-[4-(2-chlorophenyl)-1,2-dihydro-6-ethyl-1-methyl-2-oxo-3-quinolyl]-N'-(2-isopropyl-6-methylphenyl)urea] | 
97.8 | 37 | CC(C)c1ccc2c(c1)c(-c1ccccc1Cl)c(NC(=O)Nc1ccc(F)cc1F)c(=O)n2C [Example 19, N-[4-(2-chlorophenyl)-1,2-dihydro-6-isopropyl-1-methyl-2-oxo-3-quinolyl]-N'-(2,4-difluorophenyl)urea] | 
